US20250120967A1, “TYROSINE KINASES INHIBITORS AND USES THEREOF” (GREAT NOVEL THERAPEUTICS BIOTECH & MEDICALS CORPORATION, priority 2023, published 2025)

Legend:
Test in all cases: Tyrosine kinase inhibition assay
Format in all cases: biochemical
Conditions in all cases: single concentration 1.0 μM, read-out: percent inhibition
[1] = molecular target: T1, ITK (Homo sapiens, UniProt Q08881)
T1 sequence (Q08881 1-620): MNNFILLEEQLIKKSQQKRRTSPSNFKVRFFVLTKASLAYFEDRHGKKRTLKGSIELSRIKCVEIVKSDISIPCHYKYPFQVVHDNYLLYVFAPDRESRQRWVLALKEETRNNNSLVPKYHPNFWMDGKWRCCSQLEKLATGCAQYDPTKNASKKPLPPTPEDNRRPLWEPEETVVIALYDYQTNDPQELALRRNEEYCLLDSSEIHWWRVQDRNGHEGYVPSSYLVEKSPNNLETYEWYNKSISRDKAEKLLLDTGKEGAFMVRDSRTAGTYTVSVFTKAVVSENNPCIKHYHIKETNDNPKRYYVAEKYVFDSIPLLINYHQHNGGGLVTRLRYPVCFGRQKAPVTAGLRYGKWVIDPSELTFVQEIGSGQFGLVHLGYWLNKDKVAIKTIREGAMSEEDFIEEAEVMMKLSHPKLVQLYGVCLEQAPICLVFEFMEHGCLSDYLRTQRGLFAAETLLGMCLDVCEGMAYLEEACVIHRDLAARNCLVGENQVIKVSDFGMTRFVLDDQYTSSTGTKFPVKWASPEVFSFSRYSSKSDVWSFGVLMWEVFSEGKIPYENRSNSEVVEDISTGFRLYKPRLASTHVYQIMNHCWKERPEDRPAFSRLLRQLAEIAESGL
Procedure, shortened: (§1)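 Percent inhibition from a one-concentration (1.0 μM) Z′-LYTE biochemical screen at apparent-Km ATP; >80% scored as a hit.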

[2] = molecular target: T2, AURKA (Aurora A) (Homo sapiens, UniProt O14965)
T2 sequence (O14965 1-403): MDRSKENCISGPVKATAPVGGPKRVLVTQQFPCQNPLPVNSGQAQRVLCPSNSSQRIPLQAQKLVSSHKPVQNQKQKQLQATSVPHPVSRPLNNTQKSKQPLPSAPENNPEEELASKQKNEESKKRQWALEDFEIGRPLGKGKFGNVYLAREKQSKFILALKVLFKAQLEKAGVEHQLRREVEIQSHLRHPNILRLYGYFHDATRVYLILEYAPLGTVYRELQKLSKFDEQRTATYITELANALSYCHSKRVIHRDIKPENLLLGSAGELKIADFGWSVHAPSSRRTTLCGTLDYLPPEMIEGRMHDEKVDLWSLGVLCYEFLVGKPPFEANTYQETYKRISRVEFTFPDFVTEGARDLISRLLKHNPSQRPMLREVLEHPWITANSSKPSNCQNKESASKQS
Procedure, shortened: as §1

[3] = molecular target: T3, TNK1 (Homo sapiens, UniProt Q13470)
T3 sequence (Q13470 1-666): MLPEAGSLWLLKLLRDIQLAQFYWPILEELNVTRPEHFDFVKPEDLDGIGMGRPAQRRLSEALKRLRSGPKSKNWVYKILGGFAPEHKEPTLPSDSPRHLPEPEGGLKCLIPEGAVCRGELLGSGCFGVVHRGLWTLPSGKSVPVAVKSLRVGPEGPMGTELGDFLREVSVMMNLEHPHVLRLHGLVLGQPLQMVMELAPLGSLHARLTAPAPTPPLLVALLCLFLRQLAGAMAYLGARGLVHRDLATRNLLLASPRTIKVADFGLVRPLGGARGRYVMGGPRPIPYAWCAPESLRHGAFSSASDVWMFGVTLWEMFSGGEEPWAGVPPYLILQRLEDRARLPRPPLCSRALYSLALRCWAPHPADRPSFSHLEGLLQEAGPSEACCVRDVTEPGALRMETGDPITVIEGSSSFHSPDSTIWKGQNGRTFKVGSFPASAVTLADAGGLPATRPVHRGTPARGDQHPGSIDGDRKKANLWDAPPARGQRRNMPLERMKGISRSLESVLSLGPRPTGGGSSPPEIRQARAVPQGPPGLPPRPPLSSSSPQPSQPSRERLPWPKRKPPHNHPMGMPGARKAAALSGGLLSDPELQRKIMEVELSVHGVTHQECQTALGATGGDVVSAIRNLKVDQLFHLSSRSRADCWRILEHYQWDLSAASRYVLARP
Procedure, shortened: as §1

| SMILES | inhibition at 1 µM [1] [%] | inhibition at 1 µM [2] [%] | inhibition at 1 µM [3] [%] |
| --- | --- | --- | --- |
| COc1cc2nccc(Oc3ccc(NC(=O)C4(C(=O)Nc5ccc(F)cc5)CC4)cc3)c2cc1OC [Cabozantinib, reference compound] | 15 | 55 | 74 |
| COc1cc2nccc(Oc3ccc(NC(=O)C4(NC(=O)c5ccc(F)cc5)CC4)cc3F)c2cc1OC [Cbo-02, N-(1-((4-((6,7-diMethoxyquinolin-4-yl)oxy)-3-fluorophenyl)carbamoyl)cyclopropyl)-4-fluorobenzamide] | 8 | 75 | 17 |
| COc1cc2nccc(Oc3ccc(NC(=O)C4(NC(=O)c5ccc(F)cc5)CC4)cc3F)c2cc1Oc1ccc(N)cc1F [Cbo-10] | 25 | 92 | 39 |
| COc1cc2nccc(Oc3ccc(NC(=O)C4(NC(=O)c5ccc(F)cc5)CC4)cc3F)c2cc1Oc1c(F)cc(N)cc1F [Cbo-14] | 28 | 89 | 64 |
| COc1cc2nccc(Oc3ccc(NC(=O)C4(C(=O)Nc5ccc(F)cc5)CC4)cc3F)c2cc1Oc1ccc(N)cc1F [Cbo-23] | 54 | 55 | 92 |
